Experimental data reported in patent US7217730B2, “Method for the use of pyranoindole derivatives to treat infection with Hepatitis C virus” (Wyeth, priority 2002, dated 2007).
pIC50: −log10 of the molar value. Where two headings read alike, the source gives them in different places.

Assays:
[1] = target: T1, NS5B from the BK strain (genotype 1b) (Hepatitis C virus genotype 1b, UniProt P26663); assay: Hepatitis C polymerase inhibition, NS5B BK strain, 33P-GTP filter assay; type: biochemical; settings: for pIC50: NS5B BK strain
T1 construct: NS5B from the BK strain (genotype 1b) is expressed in E. coli as a protein in which the 21 C-terminal amino acids are replaced; made in house; host or cells: E. coli
In short: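 Radiolabelled RNA synthesis was measured by filter capture and scintillation counting after EDTA stop. His-tagged, C-terminally truncated (Δ21) genotype 1b BK NS5B from E. coli, pre-exposed to compound for 15 min, copied a self-primed RNA template (~3 nM) with α-[33P]-GTP for 2 h at room temperature.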

[2] = target: BB7 (RNA-dependent RNA polymerase hepatitis C virus protein sequence derived from HCV replicon) (Hepatitis C virus genotype 1b, UniProt Q9WMX2); assay: Hepatitis C polymerase inhibition, BB7 sequence; type: biochemical; settings: Table 1B
[3] = Table 1A, read-out: HCV pol BK IC50

T1 sequence (P26663 2420-2989): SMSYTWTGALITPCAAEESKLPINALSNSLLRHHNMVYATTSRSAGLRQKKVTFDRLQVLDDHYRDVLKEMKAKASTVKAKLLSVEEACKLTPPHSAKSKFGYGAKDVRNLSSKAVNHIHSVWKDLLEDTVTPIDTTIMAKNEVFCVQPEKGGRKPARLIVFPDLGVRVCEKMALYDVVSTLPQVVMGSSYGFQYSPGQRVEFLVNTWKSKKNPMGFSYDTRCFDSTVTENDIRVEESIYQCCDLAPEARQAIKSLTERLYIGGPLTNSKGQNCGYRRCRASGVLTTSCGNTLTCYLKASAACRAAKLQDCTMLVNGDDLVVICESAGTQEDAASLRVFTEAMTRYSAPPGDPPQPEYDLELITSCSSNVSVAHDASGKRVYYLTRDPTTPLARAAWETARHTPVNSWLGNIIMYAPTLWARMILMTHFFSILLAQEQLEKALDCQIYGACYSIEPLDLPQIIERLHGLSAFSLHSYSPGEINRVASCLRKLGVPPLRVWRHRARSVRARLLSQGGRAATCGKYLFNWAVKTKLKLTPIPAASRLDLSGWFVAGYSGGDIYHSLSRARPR
BB7 (RNA-dependent RNA polymerase hepatitis C virus protein sequence derived from HCV replicon), sequence (Q9WMX2 2420-3010): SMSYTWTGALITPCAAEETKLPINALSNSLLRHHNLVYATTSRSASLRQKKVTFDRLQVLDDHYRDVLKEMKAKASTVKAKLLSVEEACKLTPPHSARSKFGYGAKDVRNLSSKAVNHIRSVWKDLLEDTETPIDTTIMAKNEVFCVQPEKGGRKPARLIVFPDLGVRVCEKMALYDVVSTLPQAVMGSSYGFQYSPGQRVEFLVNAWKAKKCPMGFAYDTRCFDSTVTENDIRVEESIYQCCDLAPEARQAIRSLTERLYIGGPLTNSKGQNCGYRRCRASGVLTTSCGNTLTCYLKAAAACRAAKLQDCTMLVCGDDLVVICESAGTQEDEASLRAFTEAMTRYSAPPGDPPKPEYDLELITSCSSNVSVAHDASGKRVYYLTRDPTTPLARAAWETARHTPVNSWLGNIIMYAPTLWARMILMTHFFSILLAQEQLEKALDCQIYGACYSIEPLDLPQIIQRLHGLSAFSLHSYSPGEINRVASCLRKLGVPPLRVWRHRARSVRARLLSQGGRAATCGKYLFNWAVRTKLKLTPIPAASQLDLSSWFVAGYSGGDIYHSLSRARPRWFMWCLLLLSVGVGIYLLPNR

Compound | pIC50 ([1]; Table 1B, read-out: BK IC50) | pIC50 [2] | pIC50 [1, 3] | other results
CC[C@H](C)C1(CC(=O)O)OCCc2c1[nH]c1c(C)ccc(Cl)c21 (mixture of isomers) [Example 261, (1R*,10S)-[5-chloro-8-methyl-1-(1-methylpropyl)-1,3,4,9-tetrahydropyrano[3,4-b]indol-1-yl]acetic acid] | 6.40 | 6.05 | – | –
CC[C@H](C)C1(CC(=O)O)OCCc2c1[nH]c1c(C#N)ccc(C(F)(F)F)c21 (mixture of isomers) [Example 279, (1R*,10S)-[8-cyano-1-(1-methylpropyl)-5-trifluoromethyl-1,3,4,9-tetrahydropyrano[3,4-b]indol-1-yl]acetic acid] | 5.70 | 5.62 | – | –
CC[C@H](C)C1(CC(=O)O)OCCc2c1[nH]c1c(C)ccc([N+](=O)[O-])c21 (mixture of isomers) [Example 300, (1R*,10S)-[8-methyl-1-(1-methylpropyl)-5-nitro-1,3,4,9-tetrahydropyrano[3,4-b]indol-1-yl]acetic acid] | 6.85 | 6.60 | – | –
CC[C@H](C)C1(CC(=O)O)OCCc2c1[nH]c1c(C)cc(F)c(C#N)c21 (mixture of isomers) [Example 318, (1R*,10S)-[5-cyano-6-fluoro-8-methyl-1-(1-methylpropyl)-1,3,4,9-tetrahydropyrano[3,4-b]indol-1-yl]acetic acid] | 6.85 | 6.60 | – | –
CC[C@H](C)C1(CC(=O)O)OCCc2c1[nH]c1c(Cl)ccc(C#N)c21 (mixture of isomers) [Example 324] | 6.70 | 6.46 | – | –
CC[C@H](C)[C@@]1(CC(=O)O)OCCc2c1[nH]c1c(C)ccc(C#N)c21 (racemic) [Example 289, (1R*,10S*)-[5-cyano-8-methyl-1-(1-methylpropyl)-1,3,4,9-tetrahydropyrano[3,4-b]indol-1-yl]acetic acid] | 6.92 | 6.64 | – | –
CC[C@@H](C)[C@@]1(CC(=O)O)OCCc2c1[nH]c1c(C)ccc(C#N)c21 (racemic) [Example 290, (1R*,10R*)-[5-cyano-8-methyl-1-(1-methylpropyl)-1,3,4,9-tetrahydropyrano[3,4-b]indol-1-yl]acetic acid] | 5.49 | 5.31 | – | –
CCC(C)C1(CC(=O)O)OCCc2c1[nH]c1c(C)ccc(C#N)c21 (racemic) [Example 291, (1R*,10S)-[5-cyano-8-methyl-1-(1-methylpropyl)-1,3,4,9-tetrahydropyrano[3,4-b]indol-1-yl]acetic acid] | 6.64 | 6.30 | – | –
CC[C@H](C)[C@@]1(CC(=O)O)OCCc2c1[nH]c1c(F)ccc(C#N)c21 (racemic) [Example 313, (1R*,10S*)-[5-cyano-8-fluoro-1-(1-methylpropyl)-1,3,4,9-tetrahydropyrano[3,4-b]indol-1-yl]acetic acid] | 5.74 | 5.82 | – | –
CCC(C)C1(CC(=O)O)OCCc2c1[nH]c1c(F)ccc(C#N)c21 (racemic) [Example 314, (1R*,10S)-[5-cyano-8-fluoro-1-(1-methylpropyl)-1,3,4,9-tetrahydropyrano[3,4-b]indol-1-yl]acetic acid] | 5.85 | 5.51 | – | –
CC[C@@H](C)[C@@]1(C(=O)O)OCCc2c1[nH]c1c(C)ccc(C#N)c21 (racemic) [Example 336, (1R*,10R*)-[5-cyano-8-methyl-1-(1-methylpropyl)-1,3,4,9-tetrahydropyrano[3,4-b]indol-1-yl]carboxylic acid] | 5.33 | 5.06 | – | –
CC[C@H](C)[C@@]1(C(=O)O)OCCc2c1[nH]c1c(F)ccc(C#N)c21 (racemic) [Example 348, (1R*,10S*)-[5-cyano-8-fluoro-1-(1-methylpropyl)-1,3,4,9-tetrahydropyrano[3,4-b]indol-1-yl]carboxylic acid] | < 4.52 | < 4.52 | – | –
CC[C@H](C)[C@@]1(C(=O)O)OCCc2c1[nH]c1c(C)ccc(C#N)c21 (relative stereo) [Example 335, (1R*,10S*)-[5-cyano-8-methyl-(1-methylpropyl)-1,3,4,9-tetrahydropyrano[3,4-b]indol-1-yl]carboxylic acid] | < 4.52 | < 4.52 | – | –
CC[C@@H](C)[C@@]1(C(=O)O)OCCc2c1[nH]c1c(F)ccc(C#N)c21 (relative stereo) [Example 349, (1R*,10R*)-[5-cyano-8-fluoro-1-(1-methylpropyl)-1,3,4,9-tetrahydropyrano[3,4-b]indol--1-yl]carboxylic acid] | 5.36 | < 4.62 | – | –
CC[C@@H](C)[C@@]1(CC(=O)O)OCCc2c1[nH]c1c(F)ccc(C#N)c21 (single isomer, unassigned) [Example 312, (1R*,10R*)-[5-cyano-8-fluoro-1-(1-methylpropyl)-1,3,4,9-tetrahydropyrano[3,4-b]indol-1-yl]acetic acid] | 4.80 | < 4.52 | – | –
C/C=C/CCC1(CC(=O)O)OCCc2c1[nH]c1c(F)cc(C)c(C#N)c21 (stereo not shown) [Example 223, {5-cyano-8-fluoro-6-methyl-1-[(3E)-pent-3-enyl]-1,3,4,9-tetrahydropyrano[3,4-b]indol-1-yl}acetic acid] | – | – | < 5.30 | inhibition at 20 µM ([1]; Table 1A, 20 μM compound, read-out: HCV pol % inh at 20 μM): 37%
CCCC1(CC(=O)O)OCCc2c1[nH]c1c(C)ccc(C(=O)NC)c21 (stereo not shown) [Example 224, (8-methyl-5-methylcarbamoyl-1-propyl-1,3,4,9-tetrahydropyrano[3,4-b]indol-1-yl)acetic acid] | – | – | < 4.70 | –
CCCC1(CC(=O)O)OCCc2c1[nH]c1c(C)ccc(C(N)=O)c21 (stereo not shown) [Example 226, (5-carbamoyl-8-Methyl-1-propyl-1,3,4,9-tetrahydropyrano[3,4-b]indol-1-yl)acetic acid] | – | – | < 4.70 | –

Compound | pIC50 ([1]; Table 1B, read-out: BK IC50) | pIC50 [2] | pIC50 [1, 3] | other results
CCCC1(CC(=O)O)OCCc2c1[nH]c1c(C)ccc(C(=O)N(C)C)c21 (stereo not shown) [Example 227, (5-dimethylcarbamoyl-8-Methyl-1-propyl-1,3,4,9-tetrahydropyrano[3,4-b]indol-1-yl)acetic acid] | – | – | < 4.70 | –
CCCC1(CC(=O)O)OC(C)Cc2c1[nH]c1c(F)ccc(C#N)c21 (stereo not shown) [Example 228, (5-cyano-8-fluoro-3-methyl-1-propyl-1,3,4,9-tetrahydropyrano[3,4-b]indol-1-yl)acetic acid] | – | – | 5.05 | –
CCCC1(CC(=O)O)OCC(C)c2c1[nH]c1c(Cl)ccc(Cl)c21 (stereo not shown) [Example 229, (5,8-dichloro-4-methyl-1-propyl-1,3,4,9-tetrahydropyrano[3,4-b]indol-1-yl)acetic acid] | – | – | 5.15 | –
CCCC1(CC(=O)O)OCC(C)(C)c2c1[nH]c1c(Cl)ccc(Cl)c21 (stereo not shown) [Example 230, (5,8-dichloro-4,4-dimethyl-1-propyl-1,3,4,9-tetrahydropyrano[3,4-b]indol-1-yl)acetic acid] | – | – | 5.51 | –
CCCC1(CC(=O)O)OCCc2c1n(C)c1c(Cl)ccc(Cl)c21 (stereo not shown) [Example 232, (5,8-dichloro-9-methyl-1-propyl-1,3,4,9-tetrahydropyrano[3,4-b]indol-1-yl)acetic acid] | – | – | 5.12 | –
C=CCn1c2c(c3c(Cl)ccc(Cl)c31)CCOC2(CCC)CC(=O)O (stereo not shown) [Example 233, (9-allyl-5,8-dichloro-1-propyl-1,3,4,9-tetrahydropyrano[3,4-b]indol-1-yl)acetic acid] | – | – | < 4.70 | –
CCCC1(CC(=O)O)OCCc2c1n(Cc1ccccc1)c1c(Cl)ccc(Cl)c21 (stereo not shown) [Example 234, (9-benzyl-5,8-dichloro-1-propyl-1,3,4,9-tetrahydropyrano[3,4-b]indol-1-yl)acetic acid] | – | – | 4.89 | –
CCOCC1(CC(=O)O)OCCc2c1[nH]c1cc(Cl)c(Cl)cc21 (stereo not shown) [Example 241, (6,7-dichloro-1-ethoxymethyl-1,3,4,9-tetrahydropyrano[3,4-b]indol-1-yl)acetic acid] | – | < 4.52 | – | –
CC1(CC(=O)O)OCCc2c1[nH]c1c(Cl)ccc(Cl)c21 (stereo not shown) [Example 242, (5,8-dichloro-1-methyl-1,3,4,9-tetrahydropyrano[3,4-b]indol-1-yl)acetic acid] | – | 4.74 | – | –
COCC1(CC(=O)O)OCCc2c1[nH]c1c(Cl)ccc(C(F)(F)F)c21 (stereo not shown) [Example 264, (8-chloro-1-methoxymethyl-5-trifluoromethyl-1,3,4,9-tetrahydropyrano[3,4-b]indol-1-yl)acetic acid] | < 4.52 | – | – | –
N#Cc1ccc(F)c2[nH]c3c(c12)CCOC3(CC(=O)O)C1CCCCC1 (stereo not shown) [Example 309, (5-cyano-1-cyclohexyl-8-fluoro-1,3,4,9-tetrahydropyrano[3,4-b]indol-1-yl)acetic acid] | 4.59 | – | – | –
CCC[C@]1(C(=O)O)OCCc2c1[nH]c1c(F)ccc(C#N)c21 [Example 344, (1S)-(5-cyano-8-fluoro-1-propyl-1,3,4,9-tetrahydropyrano[3,4-b]indol-1-yl)carboxylic acid] | 6.15 | – | – | –
(1-propyl-8-thien-2-yl-1,3,4,9-tetrahydropyrano[3,4-b]indol-1-yl)acetic acid [Example 95] | – | – | 4.84 | HCV pol % inh at 20 μM ([1]; Table 1A, 20 μM compound): 68%
(4-cyclobutyl-5,8-dichloro-1-propyl-1,3,4,9-tetrahydropyrano[3,4-b]indol-1-yl)acetic acid [Example 231] | – | – | 5.14 | –
(5-bromo-8-fluoro-1,6-dimethyl-1,3,4,9-tetrahydropyrano[3,4-b]indol-1-yl)acetic acid [Example 163] | – | – | < 5.00 | HCV pol % inh at 20 μM ([1]; Table 1A, 20 μM compound): 28%
(5-cyano-8-fluoro-6-methyl-1-propyl-1,3,4,9-tetrahydropyrano[3,4-b]indol-1-yl)acetic acid [Example 221] | – | – | 6.37 | HCV pol % inh at 20 μM ([1]; Table 1A, 20 μM compound): 81%
(8-fluoro-5-iodo-6-methyl-1-propyl-1,3,4,9-tetrahydropyrano[3,4-b]indol-1-yl)acetic acid [Example 218] | – | – | 6.54 | HCV pol % inh at 20 μM ([1]; Table 1A, 20 μM compound): 92%
